Laboratory results: PubChem BioAssay AID248 (DTP/NCI, 2004)
“And” between values parts separate entries of the source, which are not always exact repeats. Equal values may be shown once. Toxic doses and inconclusive results are not listed. Cut-off read from the data, not from the text of the source: active = T/C of 150% or more; inactive = T/C below 125%.

Tested on: L1210 leukemia ip in BDF1 mice, survival T/C
Test: NCI In Vivo Anticancer Drug Screen. Data for tumor model L1210 Leukemia (intraperitoneal) in B6D2F1 (BDF1) mice
Settings: endpoint: mean survival time, higher = longer survival
Method in brief: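 Survival endpoint. Drug-treated group vs vehicle group, expressed as T divided by C. Tumor passaged by transplantation.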

[1] = dose: 100.0 mg/kg/injection, schedule: Q01DX009 (ip), vehicle: saline with Tween-80
[2] = dose: 200.0 mg/kg/injection, schedule: Q01DX009 (ip), vehicle: saline with Tween-80
[3] = dose: 400.0 mg/kg/injection, schedule: Q01DX009 (ip), vehicle: saline with Tween-80
[4] = dose: 100.0 mg/kg/injection, schedule: Q01DX009 (ip), vehicle: Klucel (hydroxypropylcellulose) (HPC)
[5] = dose: 200.0 mg/kg/injection, schedule: Q01DX009 (ip), vehicle: Klucel (hydroxypropylcellulose) (HPC)
[6] = dose: 100.0 mg/kg/injection, schedule: Q04DX003 (ip), vehicle: saline
[7] = dose: 200.0 mg/kg/injection, schedule: Q04DX003 (ip), vehicle: saline
[8] = dose: 400.0 mg/kg/injection, schedule: Q04DX003 (ip), vehicle: saline
[9] = dose: 100.0 mg/kg/injection, schedule: Q01DX001 (ip), vehicle: carboxymethylcellulose (CMC)
[10] = dose: 100.0 mg/kg/injection, schedule: Q04DX003 (ip), vehicle: carboxymethylcellulose (CMC)
[11] = dose: 200.0 mg/kg/injection, schedule: Q01DX001 (ip), vehicle: carboxymethylcellulose (CMC)
[12] = dose: 200.0 mg/kg/injection, schedule: Q04DX003 (ip), vehicle: carboxymethylcellulose (CMC)
[13] = dose: 400.0 mg/kg/injection, schedule: Q01DX001 (ip), vehicle: carboxymethylcellulose (CMC)
[14] = dose: 400.0 mg/kg/injection, schedule: Q01DX009 (ip), vehicle: carboxymethylcellulose (CMC)
[15] = dose: 400.0 mg/kg/injection, schedule: Q04DX003 (ip), vehicle: carboxymethylcellulose (CMC)
[16] = dose: 100.0 mg/kg/injection, schedule: Q01DX009 (ip), vehicle: saline
[17] = dose: 200.0 mg/kg/injection, schedule: Q01DX009 (ip), vehicle: saline
[18] = dose: 400.0 mg/kg/injection, schedule: Q01DX009 (ip), vehicle: saline
[19] = dose: 100.0 mg/kg/injection, schedule: Q04DX003 (ip), vehicle: Klucel (hydroxypropylcellulose) (HPC)
[20] = dose: 200.0 mg/kg/injection, schedule: Q04DX003 (ip), vehicle: Klucel (hydroxypropylcellulose) (HPC)
[21] = dose: 400.0 mg/kg/injection, schedule: Q04DX003 (ip), vehicle: Klucel (hydroxypropylcellulose) (HPC)
[22] = dose: 100.0 mg/kg/injection, schedule: Q04DX003 (ip), vehicle: saline with Tween-80
[23] = dose: 200.0 mg/kg/injection, schedule: Q04DX003 (ip), vehicle: saline with Tween-80
[24] = dose: 400.0 mg/kg/injection, schedule: Q04DX003 (ip), vehicle: saline with Tween-80

Measured: T/C

CCc1ccc(C2=C(O)C(=O)C(c3ccccc3)=C(O)C2=O)cc1
inactive: dose: 12.5 mg/kg/injection, schedule: Q01DX009 (ip), vehicle: acetone 95 % of control | dose: 25.0 mg/kg/injection, schedule: Q01DX009 (ip), vehicle: acetone 90 % of control | dose: 33.0 mg/kg/injection, schedule: Q01DX009 (ip), vehicle: acetone 96 % of control | dose: 33.0 mg/kg/injection, schedule: Q01DX009 (ip), vehicle: saline 96 % of control | dose: 50.0 mg/kg/injection, schedule: Q01DX009 (ip), vehicle: acetone 101 % of control | dose: 50.0 mg/kg/injection, schedule: Q01DX009 (ip), vehicle: saline 97 % of control | dose: 75.0 mg/kg/injection, schedule: Q01DX009 (ip), vehicle: acetone 118 % of control

Cc1cncc(CC(O)(C(F)(F)F)C(F)(F)F)n1
inactive: dose: 100.0 mg/kg/injection, schedule: Q01DX001 (ip), vehicle: saline 102 % of control | [1] 97 % of control | dose: 200.0 mg/kg/injection, schedule: Q01DX001 (ip), vehicle: saline 96 % of control | [2] 103 % of control | dose: 400.0 mg/kg/injection, schedule: Q01DX001 (ip), vehicle: saline 104 % of control | [3] 101 % of control

C=C1C(=O)OC2C1C(OC(=O)/C(=C/C)COC(C)=O)CC1(CO1)C1C(OC(=O)/C(=C/C)CO)C=C(C)C21 (stereo unspecified)
inactive: dose: 50.0 mg/kg/injection, schedule: Q01DX009 (ip), vehicle: Klucel (hydroxypropylcellulose) (HPC) 93 % of control | [4] 93 % of control | [5] 86 % of control

CC1C(C)(C)P(=O)(SCc2ccccc2)C1(C)C (stereo unspecified)
inactive: [6] 94 % of control | [7] 103 % of control | [8] 100 % of control

O=C(c1c(F)c(F)c(F)c(F)c1F)N1CC1
inactive: dose: 25.0 mg/kg/injection, schedule: Q01DX009 (ip), vehicle: water 96 % of control | dose: 50.0 mg/kg/injection, schedule: Q01DX009 (ip), vehicle: water 93 % of control

CCOC(=O)CNC(=O)Oc1cc(C)c(Cl)cc1C
inactive: [9] 100 % of control and 110 % of control | dose: 100.0 mg/kg/injection, schedule: Q01DX009 (ip), vehicle: carboxymethylcellulose (CMC) 89 % of control | dose: 100.0 mg/kg/injection, schedule: Q04DX002 (ip), vehicle: carboxymethylcellulose (CMC) 93 % of control and 96 % of control | [10] 101 % of control and 90 % of control | [11] 106 % of control and 109 % of control | dose: 200.0 mg/kg/injection, schedule: Q01DX009 (ip), vehicle: carboxymethylcellulose (CMC) 95 % of control | dose: 200.0 mg/kg/injection, schedule: Q04DX002 (ip), vehicle: carboxymethylcellulose (CMC) 98 % of control and 99 % of control | [12] 94 % of control and 103 % of control | [13] 102 % of control and 103 % of control | [14] 100 % of control | dose: 400.0 mg/kg/injection, schedule: Q04DX002 (ip), vehicle: carboxymethylcellulose (CMC) 95 % of control and 99 % of control | [15] 97 % of control and 87 % of control

CC(=O)OCC(Br)C(Br)COC(C)=O (stereo unspecified)
inactive: [16] 98 % of control | [17] 95 % of control | [18] 103 % of control

CC(C)CC1NC(=O)C(Cc2ccc(OCc3ccccc3)cc2)NC1=O (stereo unspecified)
inactive: [1] 102 % of control | [6] 104 % of control | [2] 96 % of control | [7] 88 % of control | [3] 100 % of control | [8] 94 % of control

COc1ccc(OC)c(NC(=O)Nc2ccc(N(C)C)cc2)c1
inactive: [19] 93 % of control | [20] 97 % of control | [21] 95 % of control

O=CC(O)C(O)C(O)C(O)CO (stereo unspecified)
inactive: [16] 98 % of control | [17] 96 % of control | [18] 107 % of control | dose: 800.0 mg/kg/injection, schedule: Q01DX009 (ip), vehicle: saline 98 % of control

ClCc1ccccc1CCl
inactive: dose: 5.0 mg/kg/injection, schedule: Q01DX015 (ip), vehicle: carboxymethylcellulose (CMC) 90 % of control | dose: 10.0 mg/kg/injection, schedule: Q01DX015 (ip), vehicle: carboxymethylcellulose (CMC) 87 % of control

Nc1ncnc(Nc2ccccc2[N+](=O)[O-])c1[N+](=O)[O-]
inactive: dose: 12.5 mg/kg/injection, schedule: Q01DX001 (ip), vehicle: Klucel (hydroxypropylcellulose) (HPC) 97 % of control | dose: 25.0 mg/kg/injection, schedule: Q01DX001 (ip), vehicle: Klucel (hydroxypropylcellulose) (HPC) 87 % of control | dose: 50.0 mg/kg/injection, schedule: Q01DX001 (ip), vehicle: Klucel (hydroxypropylcellulose) (HPC) 87 % of control

N#CCCc1c(-c2ccccc2)nc(N)[nH]c1=O
inactive: [10] 92 % of control | [12] 92 % of control | [15] 87 % of control

CCC(=O)Nc1cc(C(C)C)ccc1C
inactive: [4] 107 % of control | [19] 97 % of control | [5] 110 % of control | [20] 97 % of control | dose: 400.0 mg/kg/injection, schedule: Q01DX009 (ip), vehicle: Klucel (hydroxypropylcellulose) (HPC) 103 % of control | [21] 104 % of control

CCOC(=O)CCC(C(=O)OCC)C(=O)OCC
inactive: [1] 86 % of control | [22] 106 % of control | [2] 88 % of control | [23] 103 % of control | [3] 88 % of control | [24] 94 % of control

CCCCCCCCCCCCCCCC[N+]1(C)CCC[N+](C)(CCCCCCCCCCCCCCCC)CC1 (stereo unspecified)
inactive: dose: 100.0 mg/kg/injection, schedule: Q01DX001 (ip), vehicle: other 111 % of control and 90 % of control | dose: 100.0 mg/kg/injection, schedule: Q04DX002 (ip), vehicle: other 94 % of control and 106 % of control | dose: 200.0 mg/kg/injection, schedule: Q01DX001 (ip), vehicle: other 96 % of control and 90 % of control | dose: 200.0 mg/kg/injection, schedule: Q04DX002 (ip), vehicle: other 97 % of control and 110 % of control | dose: 400.0 mg/kg/injection, schedule: Q01DX001 (ip), vehicle: other 96 % of control and 90 % of control | dose: 400.0 mg/kg/injection, schedule: Q04DX002 (ip), vehicle: other 98 % of control and 106 % of control

Cc1ccc(C2C(C(=O)N3CCN(C)CC3)C2c2ccccc2)cc1 (stereo unspecified)
inactive: dose: 25.0 mg/kg/injection, schedule: Q04DX002 (ip), vehicle: saline 98 % of control | dose: 50.0 mg/kg/injection, schedule: Q04DX002 (ip), vehicle: saline 98 % of control | dose: 100.0 mg/kg/injection, schedule: Q04DX002 (ip), vehicle: saline 95 % of control

NC(=O)CC1CCCCC1
inactive: [19] 97 % of control | [20] 105 % of control | [21] 103 % of control

CC1OC(OC2C(CO)OC(O[C@H]3CC[C@@]4(C)C(=CC[C@H]5[C@@H]6C[C@@H]7O[C@@]8(CC[C@H](C)CN8)[C@@H](C)[C@@H]7[C@@]6(C)CC[C@@H]54)C3)C(OC3OC(C)C(O)C(O)C3O)C2O)C(O)C(O)C1O (stereo partly specified)
inactive: dose: 10.0 mg/kg/injection, schedule: Q01DX009 (ip), vehicle: saline 115 % of control | dose: 20.0 mg/kg/injection, schedule: Q01DX009 (ip), vehicle: saline 103 % of control | dose: 40.0 mg/kg/injection, schedule: Q01DX009 (ip), vehicle: saline 100 % of control | dose: 80.0 mg/kg/injection, schedule: Q01DX009 (ip), vehicle: saline 103 % of control

CCCCCCCCCCCCCC(=O)N(CCCC)CCCC
inactive: dose: 50.0 mg/kg/injection, schedule: Q01DX009 (ip), vehicle: carboxymethylcellulose (CMC) 98 % of control and 90 % of control | [9] 94 % of control | [10] 95 % of control | [11] 93 % of control | [12] 92 % of control | [13] 98 % of control | [14] 95 % of control and 104 % of control | [15] 96 % of control

Fc1ccc(-c2n[nH]c3c2CCCc2ccccc2-3)cc1
inactive: [22] 113 % of control | [23] 111 % of control | [24] 102 % of control
